One block for each molecule: values may come before it. Active and inactive are the calls of the source. No cut-off for these calls is given here.
Assays:
[1] = target: 11-beta-hydroxysteroid dehydrogenase 1 (Homo sapiens, UniProt P28845); test: Inhibition of 11beta-HSD1 in human liver microsomes using [3H]cortisone as substrate preincubated for 15 mins followed by substrate addition and measured after 30 mins by scintillation proximity assay
[2] = target: T1, 11-beta-hydroxysteroid dehydrogenase type 2 (Homo sapiens, UniProt P80365); test: Inhibition of human full-length 11beta-HSD2 expressed in HEK293 cells using cortisol as substrate after 2 hrs by LC-MS analysis; assay type: cell-based
T1 sequence (P80365 whole entry): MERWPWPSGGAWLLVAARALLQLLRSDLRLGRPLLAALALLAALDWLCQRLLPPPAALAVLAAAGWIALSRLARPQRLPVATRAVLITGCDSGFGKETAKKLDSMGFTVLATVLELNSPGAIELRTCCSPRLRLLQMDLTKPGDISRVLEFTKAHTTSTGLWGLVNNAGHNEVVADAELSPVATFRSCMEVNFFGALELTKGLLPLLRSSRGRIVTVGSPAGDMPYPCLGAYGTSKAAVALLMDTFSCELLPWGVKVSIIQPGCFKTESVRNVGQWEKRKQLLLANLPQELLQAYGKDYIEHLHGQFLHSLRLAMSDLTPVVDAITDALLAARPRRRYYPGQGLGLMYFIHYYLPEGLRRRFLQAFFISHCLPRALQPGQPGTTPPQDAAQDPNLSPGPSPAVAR

[3] = Stability in human liver microsomes at 10 uM after 30 mins by LC-MS/MS analysis; assay type: ADME, microsome; settings: read-out: Stability
[4] = Effective permeability by PAMPA; assay type: ADME; settings: read-out: Peff
[5] = target: 11-beta-hydroxysteroid dehydrogenase 1 (Mus musculus, UniProt P50172); test: Inhibition of 11beta-HSD1 in CD1 mouse liver microsomes using cortisone as substrate preincubated for 15 mins followed by substrate addition and measured after 30 mins by LC-MS analysis
11-beta-hydroxysteroid dehydrogenase 1 (Mus musculus, UniProt P50172), sequence (P50172 whole entry): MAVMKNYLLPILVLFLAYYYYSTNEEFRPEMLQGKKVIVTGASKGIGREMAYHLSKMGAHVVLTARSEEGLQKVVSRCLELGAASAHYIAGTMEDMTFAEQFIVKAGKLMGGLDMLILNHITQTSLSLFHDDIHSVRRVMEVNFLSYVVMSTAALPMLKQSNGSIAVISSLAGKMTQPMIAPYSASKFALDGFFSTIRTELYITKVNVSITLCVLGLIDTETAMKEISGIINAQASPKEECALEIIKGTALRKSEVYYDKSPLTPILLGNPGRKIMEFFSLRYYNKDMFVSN

[6] = Stability in mouse liver microsomes at 10 uM after 30 mins by LC-MS/MS analysis; assay type: ADME, microsome; settings: read-out: Stability
[7] = Drug uptake in CD1 mouse brain at 21 mg/kg, po after 3 hrs by UPLC-MS/MS analysis; assay type: ADME, organism-based; settings: read-out: Drug uptake
Mus musculus [8] = test: Cognitive enhancing effect in SAMP8 mouse assessed as prevention of short-term memory deficits by measuring time spent on exploring novel objects at 21 mg/kg, po for 4 days and measured during 10 mins retention trial after 2 hrs by novel object recognition test; assay type: functional, organism-based
Mus musculus [9] = test: Cognitive enhancing effect in SAMP8 mouse assessed as prevention of short-term memory deficits by measuring time spent on exploring novel objects at 21 mg/kg, po for 4 days and measured during 10 mins retention trial after 24 hrs by novel object recognition test; assay type: functional, organism-based
Mus musculus [10] = test: Downregulation of iNOS mRNA levels in SAMP8 mouse at 21 mg/kg, po for 4 days by qRT-PCR analysis; assay type: functional, organism-based
Mus musculus [11] = test: Downregulation of IL-6 mRNA levels in SAMP8 mouse at 21 mg/kg, po for 4 days by qRT-PCR analysis; assay type: functional, organism-based
Mus musculus [12] = test: Downregulation of APP beta-secretase C-terminal fragment protein levels in SAMP8 mouse brain at 21 mg/kg, po for 4 days by Western blot analysis; assay type: functional, organism-based
Mus musculus [13] = test: Upregulation of IDE protein levels in SAMP8 mouse brain at 21 mg/kg, po for 4 days by Western blot analysis; assay type: functional, organism-based
Mus musculus [14] = test: Effect on pre-APP mRNA levels in SAMP8 mouse brain at 21 mg/kg, po for 4 days by qRT-PCR analysis; assay type: functional, organism-based
Mus musculus [15] = test: Effect on ADAM10 mRNA levels in SAMP8 mouse brain at 21 mg/kg, po for 4 days by qRT-PCR analysis; assay type: functional, organism-based
Mus musculus [16] = test: Effect on Bace1 mRNA levels in SAMP8 mouse brain at 21 mg/kg, po for 4 days by qRT-PCR analysis; assay type: functional, organism-based
[17] = Plasma concentration in CD1 mouse at 21 mg/kg, po after 0.5 hrs by UPLC-MS/MS analysis; assay type: ADME, organism-based
[18] = Plasma concentration in CD1 mouse at 21 mg/kg, po after 1 hr by UPLC-MS/MS analysis; assay type: ADME, organism-based
[19] = Plasma concentration in CD1 mouse at 21 mg/kg, po after 3 hrs by UPLC-MS/MS analysis; assay type: ADME, organism-based
[20] = Plasma concentration in CD1 mouse at 21 mg/kg, po after 5 hrs by UPLC-MS/MS analysis; assay type: ADME, organism-based
Mus musculus [21] = test: Upregulation of PSD95 mRNA levels in SAMP8 mouse at 21 mg/kg, po for 4 days by qRT-PCR analysis; assay type: functional, organism-based
Mus musculus [22] = test: Effect on pre-APP protein levels in SAMP8 mouse brain at 21 mg/kg, po for 4 days by Western blot analysis; assay type: functional, organism-based
[23] = Ratio of plasma concentration in CD1 mouse at 21 mg/kg, po after 0.5 hrs by UPLC-MS/MS analysis to IC50 for inhibition of 11beta-HSD1 in human liver microsomes; assay type: organism-based; settings: in vivo
[24] = Elimination rate constant in CD1 mouse at 21 mg/kg, po by UPLC-MS/MS analysis; assay type: ADME, organism-based; settings: in vivo
[25] = Apparent half-life of the terminal disposition phase in CD1 mouse at 21 mg/kg, po by UPLC-MS/MS analysis; assay type: ADME, organism-based; settings: in vivo, read-out: t1/2 lambda z (converted)
[26] = Tmax in CD1 mouse at 21 mg/kg, po by UPLC-MS/MS analysis; assay type: ADME, organism-based; settings: in vivo
[27] = Cmax in CD1 mouse at 21 mg/kg, po by UPLC-MS/MS analysis; assay type: ADME, organism-based; parameters: dose 21 mg/kg, route oral; settings: in vivo
Mus musculus [28] = test: Dose normalized Cmax in CD1 mouse at 21 mg/kg, po by UPLC-MS/MS analysis; assay type: ADME, organism-based; settings: in vivo
[29] = AUClast in CD1 mouse at 21 mg/kg, po by UPLC-MS/MS analysis; assay type: ADME, organism-based; parameters: dose 21 mg/kg, time 0 - last, route oral; settings: in vivo
[30] = AUC (infinity) in CD1 mouse at 21 mg/kg, po by UPLC-MS/MS analysis; assay type: ADME, organism-based; parameters: dose 21 mg/kg, time infinity, route oral; settings: in vivo
Mus musculus [31] = test: Dose normalized AUC (infinity) in CD1 mouse at 21 mg/kg, po by UPLC-MS/MS analysis; assay type: ADME, organism-based; settings: in vivo
Mus musculus [32] = test: Extrapolated AUC in CD1 mouse at 21 mg/kg, po by UPLC-MS/MS analysis; assay type: ADME, organism-based; settings: in vivo
[33] = Apparent volume of distribution during terminal phase in CD1 mouse at 21 mg/kg, po by UPLC-MS/MS analysis; assay type: ADME, organism-based; settings: in vivo, read-out: Vz/F
[34] = Apparent oral clearance in CD1 mouse at 21 mg/kg, po by UPLC-MS/MS analysis; assay type: ADME, organism-based; settings: in vivo
[35] = target: T2, 11-beta-hydroxysteroid dehydrogenase type 2 (Homo sapiens) (UniProt P80365); test: Inhibition of human full-length 11beta-HSD2 expressed in HEK293 cells at 10 uM using cortisol as substrate after 2 hrs by LC-MS analysis relative to control; assay type: cell-based
T2 sequence (whole entry): T1 sequence (P80365 whole entry)

11-beta-hydroxysteroid dehydrogenase 1 (Homo sapiens, UniProt P28845), sequence (P28845 whole entry): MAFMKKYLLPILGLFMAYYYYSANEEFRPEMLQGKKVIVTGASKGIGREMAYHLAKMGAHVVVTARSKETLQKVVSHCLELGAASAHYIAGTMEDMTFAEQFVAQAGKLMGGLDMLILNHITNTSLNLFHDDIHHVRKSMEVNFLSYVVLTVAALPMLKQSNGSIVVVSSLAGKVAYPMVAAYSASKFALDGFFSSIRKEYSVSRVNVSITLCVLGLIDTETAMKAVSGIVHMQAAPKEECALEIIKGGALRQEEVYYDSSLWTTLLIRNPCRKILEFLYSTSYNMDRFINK

SMILES: O=C(C1CCCCC1)N1CC23CC=CCC2(CC=CC3)C1 (configuration not stated)
- IC50 [1]: 40 nM
- inhibition [35]: 100%

SMILES: CCN1CCC[C@@H]1C(=O)NC1C2CC3CC(C2)CC1C3 (some centres not stated)
- inhibition [35]: 88%
- remaining at 0.5 h, 10 µM [3]: 79%

SMILES: O=C(C1CCCCC1)N1CC2C3CCC(C3)C2C1 (configuration not stated)
- IC50 [1]: 90 nM
- IC50 [2]: < 100 nM
- remaining at 0.5 h, 10 µM [3]: 37%
- Papp [4]: 5.2 ×10⁻⁶ cm/s

SMILES: O=C(C1CCCCC1)N1CC2C3C=CC(CC3)C2C1 (configuration not stated)
- remaining at 0.5 h, 10 µM [3]: 44%

Further lines, with some results ahead:

- IC50 [1]: 30 nM
- IC50 [2]: < 100 nM
- remaining at 0.5 h, 10 µM [3]: 94%
- Papp [4]: > 30 ×10⁻⁶ cm/s
- IC50 [5]: 80 nM
- remaining at 0.5 h, 10 µM [6]: 93%
- concentration at 3 h [7]: 1.45 ng/mL
- concentration at 0.5 h [17]: 44.6 ng/mL
- concentration at 1 h [18]: 10.3 ng/mL
- concentration at 3 h [19]: 2.12 ng/mL
- concentration at 5 h [20]: 0.28 ng/mL
- Ratio [23]: 5
- k el [24]: 0.00025 s⁻¹
- half-life [25]: 46.3 min
- Tmax [26]: 30 min
- Cmax [27]: 44.6 ng/mL
- Cmax/dose (Mus musculus [28]): 2.123 kg·ng/mL/mg
- AUC(0-t) [29]: 39.7 ng·h/mL
- AUC(0-inf) [30]: 40 ng·h/mL
- AUC/dose (Mus musculus [31]): 1.906 kg·ng·h/mL/mg
- %AUCextra (Mus musculus [32]): 0.787%
- Vd/F [33]: 583 L/kg
- CL/F [34]: 525 L/h/kg
SMILES: O=C(C1CCCCC1)N1CC2C3CCC(C4CC34)C2C1 (configuration not stated)
- Activity (Mus musculus [8]): Active
- Activity (Mus musculus [9]): Active
- Activity (Mus musculus [10]): Active
- Activity (Mus musculus [11]): Active
- Activity (Mus musculus [12]): Active
- Activity (Mus musculus [13]): Active
- Activity (Mus musculus [14]): inactive
- Activity (Mus musculus [15]): inactive
- Activity (Mus musculus [16]): inactive
- Activity (Mus musculus [21]): Active
- Activity (Mus musculus [22]): inactive

- IC50 [1]: 20 nM
- IC50 [2]: 1000 to 10000 nM
- remaining at 0.5 h, 10 µM [3]: 27%
SMILES: O=C(C1CCCCC1)N1CC2C3C=CC(C4CC34)C2C1 (configuration not stated)

- IC50 [1]: 20 nM
- IC50 [2]: < 100 nM
- remaining at 0.5 h, 10 µM [3]: 60%
SMILES: O=C(C1CCCCC1)N1CC2C3C=CC(C3)C2C1 (configuration not stated)

- IC50 [1]: 20 nM
- IC50 [2]: 100 to 1000 nM
- remaining at 0.5 h, 10 µM [3]: 17%
SMILES: O=C(C1CCCCC1)N1CC2C3CCC(CC3)C2C1 (configuration not stated)

Source: ChEMBL document CHEMBL4130387, “Design, synthesis and in vivo study of novel pyrrolidine-based 11β-HSD1 inhibitors for age-related cognitive dysfunction” (Eur J Med Chem, 2017)
